Experimental data from ChEMBL document CHEMBL4825696, “Development of photocontrolled BRD4 PROTACs for tongue squamous cell carcinoma (TSCC)” (Eur J Med Chem, 2021).
Values belong to the molecule of their own block, whether it stands above or below them. Calls of active or inactive are those of the source. No cut-off for these calls is given here.

Columns and labels:
[1] = target: T1, Protein cereblon/Bromodomain-containing protein 4 (Homo sapiens) (UniProt O60885+Q96SW2); test: PhotoPROTAC activity at CRBN/BRD4 in human HEK293T cells assessed as BRD4 degradation by measuring downregulation of BRD4 level at 3 uM pretreated for 1 hr followed by irradiation with 365 nm UVA light for 15 mins and measured after 24 hrs by Western blot analysis; assay type: cell-based; conditions: time 1515.0 min
[2] = target: T1, Protein cereblon/Bromodomain-containing protein 4 (Homo sapiens); test: PhotoPROTAC activity at CBRN/BRD4 in human HEK293T cells assessed as degradation of BRD4 irradiated with 365 nm UVA light for 15 mins followed by incubation with compound for 30 mins by Fluorescence polarization competitive binding assay; assay type: cell-based
[3] = system: HN-6; test: (§1) Antiproliferative activity against human HN-6 cells assessed as reduction in cell viability incubated for 24 hrs by CCK-8 assay; assay type: functional, cell-based
[4] = system: HN-6; test: Antiproliferative activity against human HN-6 cells assessed as reduction in cell viability irradiated with 365 nm UVA light for 15 mins followed by incubation with compound for 24 hrs by CCK-8 assay; assay type: functional, cell-based
[5] = Induction of apoptosis in human HN-6 cells assessed as necrotic cells at 5 uM measured after 1 hr by AnnexinV-FITC/propidium iodide staining based flow cytometry analysis (reference value: 3.37%); assay type: functional
[6] = Induction of apoptosis in human HN-6 cells assessed as late apoptotic cells at 5 uM measured after 1 hr by AnnexinV-FITC/propidium iodide staining based flow cytometry analysis (reference value: 1.46%); assay type: functional
[7] = Induction of apoptosis in human HN-6 cells assessed as early apoptotic cells at 5 uM measured after 1 hr by AnnexinV-FITC/propidium iodide staining based flow cytometry analysis (Rvb =1.54%); assay type: functional
[8] = Induction of apoptosis in human HN-6 cells assessed as viable cells at 5 uM measured after 1 hr by AnnexinV-FITC/propidium iodide staining based flow cytometry analysis (reference value: 93.62%); assay type: functional; conditions: read-out: Activity
[9] = Induction of apoptosis in human HN-6 cells assessed as necrotic cells at 5 uM irradiated with 365 nm UVA light for 15 mins followed by incubation with compound for 24 hrs by AnnexinV-FITC/propidium iodide staining based flow cytometry analysis (reference value: 2.7%); assay type: functional
[10] = Induction of apoptosis in human HN-6 cells assessed as late apoptotic cells at 5 uM irradiated with 365 nm UVA light for 15 mins followed by incubation with compound for 24 hrs by AnnexinV-FITC/propidium iodide staining based flow cytometry analysis (Rvb =1.69%); assay type: functional
[11] = Induction of apoptosis in human HN-6 cells assessed as early apoptotic cells at 5 uM irradiated with 365 nm UVA light for 15 mins followed by incubation with compound for 24 hrs by AnnexinV-FITC/propidium iodide staining based flow cytometry analysis (reference value: 5.3%); assay type: functional
[12] = Induction of apoptosis in human HN-6 cells assessed as viable cells at 5 uM irradiated with 365 nm UVA light for 15 mins followed by incubation with compound for 24 hrs by AnnexinV-FITC/propidium iodide staining based flow cytometry analysis (reference value: 90.31%); assay type: functional; conditions: HN-6, light or radiation study, read-out: Activity
[13] = system: HN-6; test: Antitumour activity against human HN-6 cells xenografted in zebrafish embryo assessed as inhibition of tumour growth at 50 uM irradiated with 365 nm UVA light for 20 mins and measured after 3 days by microscopic method; assay type: functional; conditions: time 3.0 day
[14] = system: HN-6; test: Antitumour activity against human HN-6 cells xenografted in zebrafish embryo assessed as inhibition of tumour growth at 50 uM measured after 72 hrs by microscopic method; assay type: functional
[15] = (§2) Photolysis of compound in acetonitrile assessed as 2-((S)-4-(4-chlorophenyl)-2,3,9-trimethyl-6H-thieno[3,2-f][1,2,4]triazolo[4,3a][1,4]diazepin-6-yl)-N-(4-(2-((2-(2,6-dioxopiperidin-3-yl)-1,3-dioxoisoindolin-4-yl)oxy)acetamido)butyl)acetamide formation at 40 uM incubated for 60 mins under 365 nm UVA irradiation by UV-Vis spectral analysis; assay type: functional
[16] = as §2, with “HPLC” for “UV-Vis spectral”; assay type: functional
[17] = as §2, with “DMSO-d6” for “acetonitrile”, “10 mM” for “40 uM”, “1H-NMR” for “UV-Vis spectral”; assay type: functional
[18] = target: T1, Protein cereblon/Bromodomain-containing protein 4 (Homo sapiens); test: PhotoPROTAC activity at CRBN/BRD4 in human HEK293T cells assessed as BRD4 degradation by measuring downregulation of c-Myc level pretreated for 1 hr followed by irradiation with 365 nm UVA light for 15 mins and measured after 24 hrs by Western blot analysis; assay type: cell-based; conditions: time 1515.0 min
[19] = target: T1, Protein cereblon/Bromodomain-containing protein 4 (Homo sapiens); test: PROTAC activity at CBRN/BRD4 in human HEK293T cells assessed as degradation of BRD4 measured after 30 mins by Fluorescence polarization competitive binding assay; assay type: cell-based
[20] = as §1; assay type: functional, cell-based; conditions: HN-6, 24 h
[21] = system: HN-6; test: Antitumor activity against human HN-6 cells xenografted in nude mouse assessed as tumor growth inhibition at 50 mg/kg, ip administered every day for 2 weeks and measured every 2 days; assay type: functional, organism-based
[22] = target: T1, Protein cereblon/Bromodomain-containing protein 4 (Homo sapiens); test: PROTAC activity at CRBN/BRD4 in human HEK293T cells assessed as BRD4 degradation by measuring downregulation of BRD4 level at 0.1 to 10 uM by western blot analysis; assay type: cell-based; conditions: dose 0.1-10 µM
[23] = target: T1, Protein cereblon/Bromodomain-containing protein 4 (Homo sapiens); test: PROTAC activity at CRBN/BRD4 in human HEK293T cells assessed as BRD4 degradation by measuring downregulation of c-Myc level by western blot analysis; assay type: cell-based
[24] = Photolysis of compound in acetonitrile assessed as 2-(2,6-dioxo-3-piperidyl)isoindoline-1,3-dione formation at 40 uM incubated for 40 mins under 365 nm UVA irradiation by UV-Vis spectral analysis; assay type: functional
[25] = Photolysis of compound in acetonitrile assessed as 2-(2,6-dioxo-3-piperidyl)isoindoline-1,3-dione formation at 40 uM incubated for 40 mins under 365 nm UVA irradiation by HPLC analysis; assay type: functional

- Activity [1]: Active
- Activity [2]: Dose-Dependent Effect
- Activity [18]: Active
SMILES: COc1cc(CN2C(=O)CCC(N3C(=O)c4cccc(OCC(=O)NCCCCNC(=O)C[C@@H]5N=C(c6ccc(Cl)cc6)c6c(sc(C)c6C)-n6c(C)nnc65)c4C3=O)C2=O)c([N+](=O)[O-])cc1OC (stereo not given in full)
- Activity [3]: inactive
- Activity [4]: Active
- Activity [5]: 2.55%
- Activity [6]: 4.05%
- Activity [7]: 10.85%
- viability at 5 µM [8]: 82.5%
- Activity [9]: 4.24%
- Activity [10]: 8.35%
- Activity [11]: 19.29%
- viability at 5 µM [12]: 68.1%
- Activity [13]: Active
- Activity [14]: inactive
- Drug metabolism [15]: Metabolite detected
- Drug metabolism [16]: Metabolite detected
- Drug metabolism [17]: Metabolite detected

- Activity [19]: Dose-Dependent Effect
- Activity [22]: Active
- Activity [23]: Active
SMILES: Cc1sc2c(c1C)C(c1ccc(Cl)cc1)=N[C@@H](CC(=O)NCCCCNC(=O)COc1cccc3c1C(=O)N(C1CCC(=O)NC1=O)C3=O)c1nnc(C)n1-2 (stereo not given in full)
- IC50 [20]: 7.07 µM
- Activity [21]: Active
- Activity [5]: 3%
- Activity [6]: 12.17%
- Activity [7]: 33.75%
- viability at 5 µM [8]: 51.1%
- Activity [14]: Active

SMILES: COc1cc(CN2C(=O)CCC(N3C(=O)c4ccccc4C3=O)C2=O)c([N+](=O)[O-])cc1OC (stereo not given)
- Drug metabolism [24]: Metabolite detected
- Drug metabolism [25]: Metabolite detected
